Data taken from article PMC3072374, “Evolution of Vertebrate Transient Receptor Potential Vanilloid 3 Channels: Opposite Temperature Sensitivity between Mammals and Western Clawed Frogs” (PLoS Genetics, 2011).
Blank lines part the entries; values can stand above or below the compound they belong to.

What was measured:
[1] = molecular target: T1, western clawed frog TRPV3 (Xenopus tropicalis, UniProt A0A7D9NMJ5); assay: two-electrode voltage clamp in Xenopus laevis oocytes, dose-response; format: cell-based
T1 construct: full-length native channel, 773 residues, cDNA cloned from toe RNA into pGEMHE; cRNA injected into Xenopus laevis oocytes; homotetramer (known biology)
T1 sequence (A0A7D9NMJ5 1-773): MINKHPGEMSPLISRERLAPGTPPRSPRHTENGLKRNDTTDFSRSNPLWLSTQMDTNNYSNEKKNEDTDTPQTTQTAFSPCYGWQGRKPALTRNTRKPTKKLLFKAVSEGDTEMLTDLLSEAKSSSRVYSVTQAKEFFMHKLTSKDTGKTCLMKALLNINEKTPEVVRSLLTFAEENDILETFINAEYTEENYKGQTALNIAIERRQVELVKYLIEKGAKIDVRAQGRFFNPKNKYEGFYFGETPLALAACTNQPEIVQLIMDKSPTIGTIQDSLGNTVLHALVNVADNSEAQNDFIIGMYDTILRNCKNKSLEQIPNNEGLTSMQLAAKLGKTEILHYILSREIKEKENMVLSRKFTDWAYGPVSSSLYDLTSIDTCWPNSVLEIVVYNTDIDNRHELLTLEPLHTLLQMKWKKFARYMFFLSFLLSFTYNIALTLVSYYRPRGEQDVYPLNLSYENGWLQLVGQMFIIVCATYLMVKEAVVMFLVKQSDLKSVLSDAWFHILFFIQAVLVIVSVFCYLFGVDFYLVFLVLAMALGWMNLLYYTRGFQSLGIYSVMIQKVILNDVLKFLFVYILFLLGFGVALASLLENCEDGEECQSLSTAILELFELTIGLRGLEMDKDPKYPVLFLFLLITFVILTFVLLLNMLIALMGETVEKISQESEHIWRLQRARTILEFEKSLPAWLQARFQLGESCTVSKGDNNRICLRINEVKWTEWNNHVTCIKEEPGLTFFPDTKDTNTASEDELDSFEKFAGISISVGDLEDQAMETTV

mouse TRPV3 = molecular target: T2, mouse TRPV3 (Mus musculus, UniProt Q8K424); assay: two-electrode voltage clamp in Xenopus laevis oocytes; format: cell-based; settings: agonist
T2 construct: full-length channel from pcDNA3 subcloned into pOX+; cRNA injected into Xenopus laevis oocytes; homotetramer (known biology)
T2 sequence (Q8K424 1-791): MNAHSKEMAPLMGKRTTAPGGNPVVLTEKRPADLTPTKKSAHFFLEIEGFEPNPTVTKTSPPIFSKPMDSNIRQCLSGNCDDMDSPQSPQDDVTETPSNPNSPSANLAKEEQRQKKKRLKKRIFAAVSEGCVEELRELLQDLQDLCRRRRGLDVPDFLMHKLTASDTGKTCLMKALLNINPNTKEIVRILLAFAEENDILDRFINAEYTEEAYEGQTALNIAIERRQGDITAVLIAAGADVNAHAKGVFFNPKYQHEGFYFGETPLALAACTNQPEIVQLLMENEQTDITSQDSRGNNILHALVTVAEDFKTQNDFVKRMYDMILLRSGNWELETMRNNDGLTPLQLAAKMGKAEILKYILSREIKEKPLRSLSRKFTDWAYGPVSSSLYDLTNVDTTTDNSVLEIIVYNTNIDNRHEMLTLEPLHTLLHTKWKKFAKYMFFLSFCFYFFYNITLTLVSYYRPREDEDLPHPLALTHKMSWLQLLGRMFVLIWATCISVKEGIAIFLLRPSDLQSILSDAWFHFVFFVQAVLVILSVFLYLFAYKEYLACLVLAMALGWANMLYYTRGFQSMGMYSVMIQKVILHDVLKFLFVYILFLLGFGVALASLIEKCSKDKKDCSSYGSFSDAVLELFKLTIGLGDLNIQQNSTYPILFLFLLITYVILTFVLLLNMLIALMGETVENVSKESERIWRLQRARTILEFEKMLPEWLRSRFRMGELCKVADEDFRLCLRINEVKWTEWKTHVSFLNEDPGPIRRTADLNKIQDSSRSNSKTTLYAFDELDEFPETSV

EC50 [1]: 540 ± 240 µM
Structure (SMILES): NCCOB(c1ccccc1)c1ccccc1 [2-APB]

Structure (SMILES): CC12CCC(CC1=O)C2(C)C (stereo not drawn) [camphor]
activation (mouse TRPV3; 8 mM camphor): well known activators of mammalian TRPV3 (Figure 5F and 5G, Right)

Structure (SMILES): CC12CCC(CC1)C(C)(C)O2 [eucalyptol]
activation (mouse TRPV3; 10 mM eucalyptol): well known activators of mammalian TRPV3 (Figure 5F and 5G, Right)
